{"source": "ChEMBL document CHEMBL1177690", "about": "“Target-specific control of lymphoid-specific protein tyrosine phosphatase (Lyp) activity” (Bioorg Med Chem, 2010)", "assay": "Inhibition of Lyp CCPGCC mutant expressed in Escherichia coli […]", "data": [{"smiles": "O=C(O)c1ccccc1-c1c2ccc(=O)c([As]3SCCS3)c-2oc2c([As]3SCCS3)c(O)ccc12", "values": [{"measurement": "IC50", "result": 625, "unit": "nM"}]}]}
